From patent US8748471B2, “2-alkyl-cycloalk(en)yl-carboxamides” (priority 2004, dated 2014)
Like-named read-outs stand apart in the source and are kept apart here.

How the values were obtained:
[1] = log P determination by HPLC on reverse-phase column (C 18), acidic range pH 2.3 (EEC Directive 79/831 Annex V. A8); assay type: physicochemical; settings: for chromatographic logP: reverse-phase HPLC column (C 18)
Method: The stated log P values were determined in accordance with EEC Directive 79/831 Annex V. A8 by HPLC (High Performance Liquid Chromatography) on a reverse-phase column (C 18). Temperature: 43° C. Mobile phases for the determination in the acidic range (pH 2.3): 0.1% aqueous phosphoric acid, acetonitrile; linear gradient from 10% acetonitrile to 90% acetonitrile. Calibration was carried out using unbranched alkan-2-ones (having 3 to 16 carbon atoms) with known log P values (determination of the log P values by the retention times using linear interpolation between two successive alkanones).

Venturia inaequalis = assay: Venturia test (apple)/protective; assay type: in vivo; settings: protective, application rate 100 g/ha, evaluation 10 days after inoculation, 0% = control, 100% = no infection
Method: (§1) To produce a suitable preparation of active compound, 1 part by weight of active compound is mixed with the stated amounts of solvents and emulsifier, and the concentrate is diluted with water to the desired concentration.
To test for protective activity, young plants are sprayed with the preparation of active compound at the stated application rate. After the spray coating has dried on, the plants ate inoculated with an aqueous conidia suspension of the apple scab pathogen Venturia inaequalis and then remain in an incubation cabinet as about 20° C. and 100% relative atmospheric humidity for 1 day. The plants are then placed in a greenhouse at about 21° C. and a relative atmospheric humidity of about 90%.
(§2) Evaluation is carried out 10 days after the inoculation. 0% means an efficacy which corresponds to that of the control, whereas an efficacy of 100% means that no infection is observed.

Puccinia recondita = assay: Puccinia test (wheat)/protective; assay type: in vivo; settings: 240 h, protective, application rate 500 g/ha, evaluation 10 days after inoculation, 0% = control, 100% = no infection, read-out: Efficacy in %
Method: (§3) To produce a suitable preparation of active compound, 1 part by weight of active compound is mixed with the stated amounts of solvent and emulsifier, and the concentrate is diluted with water to the desired concentration.
To test for protective activity, young plants are sprayed with the preparation of active compound at the stated application rate. After the spray coating has dried on, the plants are sprayed with a conidia suspension of Puccinia recondita. The plants remain in an incubation cabinet at 20° C. and 100% relative atmospheric humidity for 48 hours. The plants are then placed in a greenhouse at a temperature of about 20° C. and a relative atmospheric humidity of 80%.
as §2

Podosphaera leucotricha = assay: Podosphaera test (apple)/protective; assay type: in vivo; settings: protective, application rate 100 g/ha, evaluation 10 days after inoculation, 0% = control, 100% = no infection
Method: as §1
To test for protective activity, young plants are sprayed with the preparation of active compound at the stated application rate. After the spray coating has dried on, the plants are inoculated with an aqueous spore suspension of Podosphaera leucotricha. The plants are then placed in a greenhouse at about 23° C. and a relative atmospheric humidity of about 70%.
as §2

Botrytis cinerea = assay: Botrytis test (bean)/protective; assay type: in vivo; settings: protective, application rate 500 g/ha, evaluation 2 days after inoculation (size of infected areas), 0% = control, 100% = no infection
Method: as §1
To test for protective activity, young plants are sprayed with the preparation of active compound at the stated application rate. After the spray coating has dried on 2 small pieces of agar colonized by Botrytis cinerea are placed onto each leaf. The inoculated plants are placed in a dark chamber at about 20° C. and 100% relative atmospheric humidity.
2 days after the inoculation, the size of the infected areas on the leaves is evaluated. 0% means an efficacy which corresponds to that of the control, whereas an efficacy of 100% means that no infection is observed.

Alternaria solani = assay: Alternaria test (tomato)/protective; assay type: in vivo; settings: protective, application rate 750 g/ha, evaluation 7 days after inoculation, 0% = control, 100% = no infection
Method: as §3
To test for protective activity, young tomato plants are sprayed with the preparation of active compound at the stated application rate. 1 day after the treatment, the plants are inoculated with a spore suspension of Alternaria solani and then remain at 100% relative atmospheric humidity and 20° C. for 24 h. The plants then remain at 96% relative atmospheric humidity and a temperature of 20° C.
Evaluation is carried out 7 days after the inoculation. 0% means an efficacy which corresponds to that of the control, whereas an efficacy of 100% means that no infection is observed.

[2] = Table 1 (I-c), pH 2.3, HPLC C18, 43° C., main diastereomer or, where several values in a cell, the individual diastereomers
[3] = pH 2.3, Table 1 (I-c), pH 2.3, HPLC C18, 43° C., main diastereomer or, where several values in a cell, the individual diastereomers, read-out: logP
[4] = Table 3 (I-k), pH 2.3, HPLC C18, 43° C., main diastereomer or the individual diastereomers

SMILES	logP [1, 2]	other results
CC(C)(C)CCC1CCCCC1NC(=O)C1=C(C(F)(F)F)OCCS1 (mixture of isomers) [I-c-39]	4.66	–
Cn1cc(C(=O)NC2CCCCC2CCC(C)(C)C)c(C(F)(F)F)n1 (mixture of isomers) [I-c-40]	4.45	–
Cn1cc(C(=O)NC2CCCCC2CCC(C)(C)C)c(C(F)(F)F)c1 (mixture of isomers) [I-c-41]	4.88	–
CC(C)(C)CCC1CCCCC1NC(=O)c1nccnc1Cl (mixture of isomers) [I-c-42]	4.27	–
Cc1nc(C(F)(F)F)c(C(=O)NC2CCCCC2CCC(C)C)s1 (mixture of isomers) [I-c-56]	4.6	–
CC(C)CCC1CCCCC1NC(=O)c1cn(C)nc1C(F)(F)F (mixture of isomers) [I-c-57]	4.19	–
CC(C)CCC1CCCCC1NC(=O)c1cccnc1Cl (mixture of isomers) [I-c-58]	3.76	–
Cc1nc(C(F)F)c(C(=O)NC2CCCCC2CCC(C)C)s1 (mixture of isomers) [I-c-59]	4.46	–
Cc1nn(C)c(F)c1C(=O)NC1CCCCC1CCC(C)C (mixture of isomers) [I-c-60]	3.79	–
CC(C)CCC1CCCCC1NC(=O)c1ccccc1C(F)(F)F (mixture of isomers) [I-c-61]	4.59	–
CC(C)CCC1CCCCC1NC(=O)c1cn(C)nc1C(F)F (mixture of isomers) [I-c-62]	3.95	–
Cc1nn(C)cc1C(=O)NC1CCCCC1CCC(C)C (mixture of isomers) [I-c-63]	3.19	–
CC(C)CCC1CCCCC1NC(=O)C1=C(C(F)(F)F)OCCS1 (mixture of isomers) [I-c-64]	4.42	–
Cc1occc1C(=O)NC1CCCCC1CCC(C)C (mixture of isomers) [I-c-65]	4.28	–
CC1=C(C(=O)NC2CCCCC2CCC(C)C)SCCO1 (mixture of isomers) [I-c-68]	4.51	–
CC(C[Si](C)(C)C)C1CCCCC1NC(=O)c1cn(C)nc1C(F)F (mixture of isomers) [I-k-6]	–	logP ([1]; pH 2.3): 4.56
Cc1nc(C(F)F)c(C(=O)NC2CCCCC2C(C)C[Si](C)(C)C)s1 (mixture of isomers) [I-k-8]	–	logP ([1]; pH 2.3): 5.13
CC(C)CC(C)C1CCCCC1N (stereo not drawn) [2-(1,3-dimethylbutyl)cyclohexanamine]	–	chromatographic logP ([1]; pH 2.3, text of Example 1, pH 2.3, two values = mixture of diastereomers, read-out: log P (pH 2.3)): 4.07
Cc1nn(C)c(F)c1C(=O)NC1CCCCC1C(C)CC(C)C (stereo not drawn) [I-c-1]	–	Efficacy in % (Venturia inaequalis): 100%; pest or weed control at 500 g/ha (Puccinia recondita): 100%; Efficacy in % (Podosphaera leucotricha): 88%; chromatographic logP [1, 3]: 4.15

SMILES	logP [1, 2]	other results
CC(C)CC(C)C1CCCCC1NC(=O)c1cccnc1Cl (stereo not drawn) [I-c-2]	4.04	–
Cc1nc(C(F)(F)F)c(C(=O)NC2CCCCC2C(C)CC(C)C)s1 (stereo not drawn) [I-c-3]	4.71	pest or weed control at 500 g/ha (Puccinia recondita): 100%; chromatographic logP [1, 3]: 4.66
CC(C)CC(C)C1CCCCC1NC(=O)c1cn(C)nc1C(F)(F)F (stereo not drawn) [I-c-6]	4.53	Efficacy in % (Botrytis cinerea): 90%; Efficacy in % (Venturia inaequalis): 99%; pest or weed control at 500 g/ha (Puccinia recondita): 100%; chromatographic logP [1, 3]: 4.1
Cc1ccsc1C(=O)NC1CCCCC1C(C)CC(C)C (stereo not drawn) [I-c-9]	5.15	pest or weed control at 500 g/ha (Puccinia recondita): 100%; chromatographic logP [1, 3]: 4.73
CC1=C(C(=O)NC2CCCCC2C(C)CC(C)C)SCCO1 (stereo not drawn) [I-c-10]	4.83	pest or weed control at 500 g/ha (Puccinia recondita): 100%; Efficacy in % (Alternaria solani): 100%; chromatographic logP [1, 3]: 4.52
CC(C)CC(C)C1CCCCC1NC(=O)c1cn(C)cc1C(F)(F)F (stereo not drawn) [I-c-11]	4.83	Efficacy in % (Botrytis cinerea): 96%; Efficacy in % (Venturia inaequalis): 90%; chromatographic logP [1, 3]: 4.45
Cc1occc1C(=O)NC1CCCCC1C(C)CC(C)C (stereo not drawn) [I-c-12]	4.58	pest or weed control at 500 g/ha (Puccinia recondita): 100%; chromatographic logP [1, 3]: 4.27
Cc1nn(C)cc1C(=O)NC1CCCCC1C(C)CC(C)C (stereo not drawn) [I-c-14]	3.47	pest or weed control at 500 g/ha (Puccinia recondita): 100%; Efficacy in % (Alternaria solani): 100%; chromatographic logP [1, 3]: 3.18
Cn1cc(C(=O)NC2CCCCC2CCC(C)(C)C)c(C(F)F)n1 (stereo not drawn) [I-c-19]	4.22	–
Cc1nc(C(F)F)c(C(=O)NC2CCCCC2CCC(C)(C)C)s1 (stereo not drawn) [I-c-23]	4.71	–
Cn1nc(C(F)(F)F)c(C(=O)NC2CCCCC2CCC(C)(C)C)c1F (stereo not drawn) [I-c-24]	4.72	–
Cc1occc1C(=O)NC1CCCCC1CCC(C)(C)C (stereo not drawn) [I-c-25]	4.55	–
CC1=C(C(=O)NC2CCCCC2C(C)CC(C)C)CCO1 (stereo not drawn) [I-c-26]	4.06	–
CC(C)CCC1CCCCC1NC(=O)c1cn(C)cc1C(F)(F)F (stereo not drawn) [I-c-69]	4.61	–
CC(C)CCC1CCCCC1NC(=O)c1ccccc1I (stereo not drawn) [I-c-70]	4.66	–
CC(C)CCC1CCCCC1NC(=O)c1ccccc1Cl (stereo not drawn) [I-c-71]	4.54	–
CC(C)CCC1CCCCC1NC(=O)c1ccsc1I (stereo not drawn) [I-c-72]	4.8	–
CC(C)CCC1CCCCC1NC(=O)c1c(C(F)(F)F)nn(C)c1F (stereo not drawn) [I-c-74]	4.47	–
CC(C)CCCC1CCCCC1NC(=O)c1cccnc1Cl (stereo not drawn) [I-c-75]	4.22	–

SMILES	logP [1, 2]	other results
CC(C)CCCC1CCCCC1NC(=O)c1cn(C)nc1C(F)(F)F (stereo not drawn) [I-c-76]	4.66	–
Cc1nn(C)c(Cl)c1C(=O)NC1CCCCC1CCC(C)C (stereo not drawn) [I-c-77]	4.07	–
Cc1nc(C(F)F)c(C(=O)NC2CCCCC2CCCC(C)C)s1 (stereo not drawn) [I-c-78]	4.95	–
Cc1nc(C(F)(F)F)c(C(=O)NC2CCCCC2CCCC(C)C)s1 (stereo not drawn) [I-c-79]	5.06	–
Cn1cc(C(=O)NC2CCCCC2CCC(C)(C)C)c(C(F)F)n1 (stereo not drawn) [I-c-81]	4.24	–
Cn1nc(C(F)(F)F)c(C(=O)NC2CCCCC2CCC(C)(C)C)c1F (stereo not drawn) [I-c-82]	4.72	–
CC(C)CCCC1CCCCC1NC(=O)c1cn(C)nc1C(F)F (stereo not drawn) [I-c-83]	4.40	–
Cc1nn(C)c(F)c1C(=O)NC1CCCCC1CCCC(C)C (stereo not drawn) [I-c-84]	4.30	–
CC(C)CCCC1CCCCC1NC(=O)c1cn(C)cc1C(F)(F)F (stereo not drawn) [I-c-86]	5.05	–
CC(C)(C)CCC1CCCCC1NC(=O)c1sccc1C(F)(F)F (stereo not drawn) [I-c-95]	5.03	–
CC(C)CC(C)C1CCCCC1NC(=O)c1sccc1C(F)(F)F (stereo not drawn) [I-c-96]	5.03	–
CC(C)(C)CCC1CCCCC1NC(=O)c1ccsc1C(F)(F)F (stereo not drawn) [I-c-97]	4.87	–
CC(C)CC(C)C1CCCCC1NC(=O)c1ccsc1C(F)(F)F (stereo not drawn) [I-c-98]	4.92	–
CC(CC(C)(C)C)C1CCCCC1NC(=O)c1sccc1C(F)(F)F (stereo not drawn) [I-c-99]	5.29	–
Cc1nn(C)c(F)c1C(=O)NC1CCCCC1CC[Si](C)(C)C (stereo not drawn) [I-k-1]	–	logP [1, 4]: 4.15
Cc1nn(C)c(F)c1C(=O)NC1CCCCC1C(C)C[Si](C)(C)C (stereo not drawn) [I-k-2]	–	logP [1, 4]: 4.51
C[Si](C)(C)CCC1CCCCC1NC(=O)c1ccsc1I (stereo not drawn) [I-k-3]	–	logP ([1]; pH 2.3): 5.13
CC(C[Si](C)(C)C)C1CCCCC1NC(=O)c1ccsc1I (stereo not drawn) [I-k-4]	–	logP ([1]; pH 2.3): 5.44
